# Experimental data taken from US9926605B2, “Functional genomics screening platform for head and neck cancer” (University of Pittsburgh—of the Commonwealth System of …, priority 2012, dated 2018).
# Columns and labels:
# [1] = test system: PE/CA-PJ49 (PTPRD I1821V) versus PE/CAPJ34 (Clone 12) HNSCC cells; experiment: MTT assay in HNSCC cell lines with endogenous mutant versus WT PTPRD; assay type: cell-based, human; settings: 24 hours, n=3, mutant PTPRD (I1821V) cells vs WT PTPRD cells
# Description: To determine if PTPR mutation enhances sensitivity to STAT3 pathway inhibitors, HNSCC cell lines harboring endogenous PTPR mutation were compared with cell lines containing WT PTPRs. Cells were plated at equal density (3×10^4/well), treated with various concentration of the STAT3 inhibitors, Stattic (Sigma-Aldrich, MO), a small molecule inhibitor of STAT3 activation and dimerization, or JSI-124 (Calbiochem, MA) for 24 hours, followed by MTT assay (n=3). EC50 values were determined, with extrapolation at 20 μM, by GraphPad Prism 5 software.
# [2] = test system: PCI-52-SD1 cells expressing PTPRT(R1059L); experiment: Growth inhibition of PCI-52-SD1 cells expressing PTPRT(R1059L) by JAK/STAT inhibitor; assay type: cell-based, human; settings: 24 hours of treatment; PTPRT(R1059L) cells vs vector control cells, n=4
# Source text: FIG. 6. Mutation of PTPRT(R1059L) leads to increased sensitivity to STAT3 inhibition in PCI-52-SD1 cells. PCI-52-SD1 cells were infected with retrovirus expressing the PTPRT(R1059L) mutant gene or PTPRT wildtype (WT) versus vector control (pMXs-EGFP vector).
# Overall, our models can be used to determine if the mutation detected in a human tumor is important for tumor growth and facilitate selection of the appropriate therapeutic agents.
# [3] = test system: UMSCC-47 cells expressing PIK3CA (WT) or PIK3CA (E542K) mutant; settings: 0 to 10 μM, 72 h; PIK3CA WT or E542K expressing cells vs vector control
# Description: Retrovirus-infected UMSCC-47 cells expressing control EGFP gene, PIK3CA (WT) or PIK3CA (E542K) mutant were subjected to BEZ-235 (from 0 to 10 μM) treatment for 72 h followed by growth determinations.
# To determine the effects of individual PIK3CA mutations on sensitivity to PI3K pathway inhibitors in HNSCC, we tested the effects of a representative PI3K pathway inhibitor (BEZ-235) in HPV-HNSCC cells engineered to express mutant or WT PIK3CA (E542K) a HNSCC line harboring a PIK3CA mutation.
# [4] = test system: UM-SCC47 cells expressing the HRAS(Q61K) mutant; experiment: Growth inhibition of UM-SCC47 cells expressing HRAS(Q61K); assay type: cell-based, human; settings: 250 nM, 24 hours; HRAS(Q61K) vs HRAS WT and EGFP vector control cells, n=4
# Description: (A) HRAS wildtype (WT) and HRAS (Q61K) mutant or an EGFP vector control was introduced into the HPV-HSNCC cell line, UM-SCC47, by retroviral infection.
# To test whether increased PI3K signaling can be achieved by mutations in HRAS, a hotspot HRAS mutation found in our HNSCC cohort, HRAS(Q61K), was generated. Experiments were performed to determine the effect this mutation had on PI3K activation and response to PI3K pathway inhibition.
# [5] = test system: phospho-STAT3 (Tyr705) in UMSCC-1 cells; experiment: pSTAT3 (Tyr705) immunoblotting in HNSCC cell line; assay type: cell-based, human; settings: increasing concentration, 24 hours, immunoblot
# Description: FIG. 13. […] UMSCC-1 cells were treated with increasing concentration of AZD1480. After 24 hours, cells were harvested to obtain cell lysates. Forty micrograms of protein/lane were subjected to electrophoresis and immunoblotted for phosphor-STAT3 (Tyr705) and total STAT3. Beta-tubulin was used as a loading control.
# (§1) The effect of AZD1480 on STAT3 tyrosine phosphorylation and cell growth was further assessed in a panel of HNSCC cell lines.
# [6] = test system: UM-SCC1 cells expressing mutant PTPRD (P1311T); experiment: MTT survival and STAT3 promoter activity in UM-SCC1 cells expressing mutant PTPRD; assay type: cell-based, human; settings: PTPRD mutant cells compared with controls
# Description: FIG. 14. […] UM-SCC1 cells expressing mutant PTPRD (P1311T) or vector control were treated with AZD1480 (5 μm) or DMSO (vehicle) followed by MTT assay to determine % survival relative to vehicle control. Results are mean±SEM, performed in triplicate.
# as §1
# 9 HNSC cell lines = experiment: Proliferation of a panel of HNSCC cell lines; assay type: cell-based; settings: Homo sapiens; range in 9 HNSC cell lines tested; data not shown; read-out: EC50 (inhibition of proliferation)
# Source text: as §1
# [7] = test system: HNSCC patient tumorgrafts; experiment: Heterotopic HNSCC patient tumorgrafts in NOD/SCID mice; assay type: in vivo
# Description: FIG. 12A-B. AZD1480 inhibits HNSCC patient tumorgraft growth in conjunction with reduce pSTAT3 expression. (A) Mice bearing heterotropic HNSCC patient tumorgrafts derived from 2 patients (10 mice per group) were treated with AZD1480 (30 mg/kg) or vehicle control, twice daily by oral gavage. Tumor volumes were measures every other day. Statistical difference was determined at the end of the experiment using the Mann-Whitney two-tailed test. (B) Tumors were harvested at the end of treatment, and whole cell lysates were prepared and subjected to immunoblotting with pSTAT3 (Tyr705) and STAT3 antibody. Beta-tubulin was used to assess protein loading. Densitometry was performed and bar graphs illustrate the cumulative findings from each HNSCC tumorgraph experiment.
# In vivo studies have generally relied on xenograft tumors derived from implantation of immortalized HNSCC cell lines into immunocompromised mice. To generate a more clinically relevant platform to assess the antitumor effects of candidate therapies, human tumors were directly inoculated into NOD/SCID mice. To date, implanted tumors from 35 HNSCC patients were obtained according to previously described methods. Twenty-six of these tumors have grown successfully in mice at a median time of 16 weeks (range 6-26 weeks) for a take rate of 74%. […]
# WT JAK2 = WT JAK2 (Homo sapiens, UniProt O60674); settings: read-out: enzyme IC50; cited from earlier work
# Chain of WT JAK2 (O60674 whole entry): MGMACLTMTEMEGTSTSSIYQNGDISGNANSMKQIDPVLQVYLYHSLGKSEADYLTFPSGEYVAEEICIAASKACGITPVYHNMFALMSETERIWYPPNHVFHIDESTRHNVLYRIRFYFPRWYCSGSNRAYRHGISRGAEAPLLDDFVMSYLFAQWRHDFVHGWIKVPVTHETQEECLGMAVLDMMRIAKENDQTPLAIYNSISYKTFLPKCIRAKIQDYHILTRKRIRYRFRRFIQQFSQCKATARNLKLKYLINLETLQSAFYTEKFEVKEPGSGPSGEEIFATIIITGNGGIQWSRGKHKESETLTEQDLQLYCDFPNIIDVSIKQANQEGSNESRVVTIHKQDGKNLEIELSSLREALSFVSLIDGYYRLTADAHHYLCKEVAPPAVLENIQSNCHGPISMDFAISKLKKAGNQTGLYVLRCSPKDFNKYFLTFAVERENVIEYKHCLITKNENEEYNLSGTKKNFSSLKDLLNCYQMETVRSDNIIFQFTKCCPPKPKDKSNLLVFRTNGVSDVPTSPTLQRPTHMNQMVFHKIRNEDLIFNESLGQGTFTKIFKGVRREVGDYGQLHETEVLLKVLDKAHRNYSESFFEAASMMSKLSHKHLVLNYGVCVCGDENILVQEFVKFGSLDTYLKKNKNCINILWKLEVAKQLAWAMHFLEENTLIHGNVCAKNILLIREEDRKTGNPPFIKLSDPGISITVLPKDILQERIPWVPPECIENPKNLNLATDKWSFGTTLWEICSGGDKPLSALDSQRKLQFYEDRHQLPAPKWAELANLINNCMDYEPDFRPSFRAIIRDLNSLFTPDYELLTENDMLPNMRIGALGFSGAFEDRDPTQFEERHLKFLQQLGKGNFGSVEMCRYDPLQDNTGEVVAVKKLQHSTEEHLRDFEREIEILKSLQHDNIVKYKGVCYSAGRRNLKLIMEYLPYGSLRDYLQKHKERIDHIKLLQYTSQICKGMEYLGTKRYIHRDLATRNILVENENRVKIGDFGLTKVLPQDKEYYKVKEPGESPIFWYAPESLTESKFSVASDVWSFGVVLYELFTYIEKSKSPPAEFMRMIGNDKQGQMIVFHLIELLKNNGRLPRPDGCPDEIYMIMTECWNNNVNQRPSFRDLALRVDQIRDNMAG
smiles,measurement,setting,value
CC(C)(O)/C=C/C(=O)[C@](C)(O)[C@H]1[C@H](O)C[C@@]2(C)[C@@H]3CC=C4[C@@H](C=C(O)C(=O)C4(C)C)[C@]3(C)C(=O)C[C@]12C [JSI-124],sensitivity to growth inhibitory effects of STAT3 pathway inhibitors,[1],more sensitive to STAT3 pathways inhibitors
same,sensitivity to growth inhibition,[2],more sensitive to growth inhibition
Cn1c(=O)n(-c2ccc(C(C)(C)C#N)cc2)c2c3cc(-c4cnc5ccccc5c4)ccc3ncc21 [BEZ-235],sensitivity to BEZ-235 treatment (growth),[3],more sensitive to BEZ-235 treatment than vector control transfected cells
same,sensitivity to growth inhibition,[4],more sensitive to growth inhibition
"Cc1cc(Nc2nc(N[C@@H](C)c3ncc(F)cn3)ncc2Cl)n[nH]1 [AZD1480, 5-chloro-N2-[(1S)-1-(5-fluoropyrimidin-2-yl)ethyl]-N4-(5-methyl-1H-pyrazol-3-yl)pyrimidine-2,4-diamine]",pSTAT3 expression,[5],reduced pSTAT3 expression in a dose- and time-dependent manner
same,survival,"[6]; AZD1480 5 μm, MTT",decreased survival
same,STAT3 promoter activity,[6],decreased survival and STAT3 promoter activity
same,EC50,9 HNSC cell lines,990 to 3800 nM
same,antitumor effects (tumorgraft growth),"[7]; heterotopic HNSCC patient tumorgrafts in mice, AZD1480 30 mg/kg twice daily by oral gavage",demonstrated antitumor effects
same,expression of pSTAT3 and STAT3 target genes in tumors,"[7]; heterotopic xenografts from 2 HNSCC human tumors, end of treatment",decreased expression of pSTAT3 and STAT3 target genes
same,IC50,WT JAK2,< 3 nM
O=[N+]([O-])c1ccc2c(c1)S(=O)(=O)C=C2 [Stattic],sensitivity to growth inhibitory effects of STAT3 pathway inhibitors,[1],more sensitive to the growth inhibitory effects
